In PubChem BioAssay AID330 (DTP/NCI, 2004) one finds T/C data, which are given here for seven compounds.

Structures are written as SMILES. Where “and” joins values, the source holds several entries; their conditions need not be identical. Identical values can stand only once. Toxic doses and inconclusive results are not listed.

The test has as its system P388 leukemia ip, CD2F1 mice, survival T/C. Put plainly: NCI In Vivo Anticancer Drug Screen. Data for tumor model P388 Leukemia (intraperitoneal) in CD2F1 (CDF1) mice. To be noted: endpoint: median survival time, higher = longer survival. A digest of the protocol: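 Mice carrying the transplanted tumor received test compound or vehicle. Survival was recorded in each group, and the value is the treated-group measurement divided by that of the vehicle-treated control group.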

The mark [1] stands for this setting: dose: 100.0 mg/kg/injection, schedule: Q01DX009 (ip), vehicle: saline with Tween-80.
The mark [2] stands for this setting: dose: 50.0 mg/kg/injection, schedule: Q01DX009 (ip), vehicle: saline.

Turning to `c1ccc2c(NCCCCCCNc3c4ccccc4nc4ccccc34)c3ccccc3nc2c1`, the T/C is, setting by setting: (dose: 0.62 mg/kg/injection, schedule: Q## X009 (ip), vehicle: lactic acid) 124 % of control; (dose: 1.25 mg/kg/injection, schedule: Q01DX009 (ip), vehicle: Klucel (hydroxypropylcellulose) (HPC)) 119 % of control; (dose: 1.25 mg/kg/injection, schedule: Q01DX009 (ip), vehicle: water) 121 % of control; (dose: 1.25 mg/kg/injection, schedule: Q01DX009 (oral), vehicle: Klucel (hydroxypropylcellulose) (HPC)) 99 % of control; (dose: 2.16 mg/kg/injection, schedule: Q01DX009 (ip), vehicle: Klucel (hydroxypropylcellulose) (HPC)) 155 % of control; (dose: 2.16 mg/kg/injection, schedule: Q01DX009 (ip), vehicle: lactic acid) 156 % of control. Also, the T/C reads like this: (dose: 2.5 mg/kg/injection, schedule: Q01DX009 (oral), vehicle: Klucel (hydroxypropylcellulose) (HPC)) 106 % of control; (dose: 2.5 mg/kg/injection, schedule: Q## X009 (ip), vehicle: lactic acid) 152 % of control; (dose: 2.59 mg/kg/injection, schedule: Q01DX009 (ip), vehicle: lactic acid) 150 % of control; (dose: 3.6 mg/kg/injection, schedule: Q01DX009 (ip), vehicle: Klucel (hydroxypropylcellulose) (HPC)) 163 % of control; (dose: 3.6 mg/kg/injection, schedule: Q01DX009 (ip), vehicle: lactic acid) 154 % of control; (dose: 4.32 mg/kg/injection, schedule: Q01DX009 (ip), vehicle: lactic acid) 150 % of control. Besides, the T/C by setting is: (dose: 5.0 mg/kg/injection, schedule: Q01DX009 (oral), vehicle: Klucel (hydroxypropylcellulose) (HPC)) 93 % of control; (dose: 5.4 mg/kg/injection, schedule: Q01DX009 (ip), vehicle: other) 156 % of control; (dose: 6.0 mg/kg/injection, schedule: Q01DX009 (ip), vehicle: Klucel (hydroxypropylcellulose) (HPC)) 180 % of control; (dose: 7.2 mg/kg/injection, schedule: Q01DX009 (ip), vehicle: Klucel (hydroxypropylcellulose) (HPC)) 157 % of control; (dose: 7.2 mg/kg/injection, schedule: Q01DX009 (ip), vehicle: lactic acid) 150 % of control; (dose: 7.2 mg/kg/injection, schedule: Q04DX003 (ip), vehicle: other) 118 % of control. Further, the T/C (dose: 7.78 mg/kg/injection, schedule: Q01DX003 (ip), vehicle: water) is 101 % of control; the T/C (dose: 7.78 mg/kg/injection, schedule: Q01DX009 (oral), vehicle: Klucel (hydroxypropylcellulose) (HPC)) is 101 % of control; the T/C (dose: 7.78 mg/kg/injection, schedule: Q01DX009 (oral), vehicle: lactic acid) is 111 % of control; the T/C (dose: 9.0 mg/kg/injection, schedule: Q01DX009 (ip), vehicle: other) is 165 % of control; the T/C (dose: 10.0 mg/kg/injection, schedule: Q01DX009 (ip), vehicle: Klucel (hydroxypropylcellulose) (HPC)) is 173 % of control; the T/C (dose: 10.0 mg/kg/injection, schedule: Q01DX009 (ip), vehicle: other) is 150 % of control. Moreover, the T/C (dose: 10.0 mg/kg/injection, schedule: Q01DX009 (ip), vehicle: water) is 150 % of control; the T/C (dose: 10.0 mg/kg/injection, schedule: Q01DX009 (oral), vehicle: Klucel (hydroxypropylcellulose) (HPC)) is 97 % of control; the T/C (dose: 12.0 mg/kg/injection, schedule: Q01DX009 (ip), vehicle: Klucel (hydroxypropylcellulose) (HPC)) was 154 % of control; the T/C (dose: 12.0 mg/kg/injection, schedule: Q04DX003 (ip), vehicle: other) was 95 % of control; the T/C (dose: 13.0 mg/kg/injection, schedule: Q01DX003 (ip), vehicle: water) was 101 % of control; the T/C (dose: 13.0 mg/kg/injection, schedule: Q01DX009 (oral), vehicle: Klucel (hydroxypropylcellulose) (HPC)) is 100 % of control. Also, the T/C is, setting by setting: (dose: 13.0 mg/kg/injection, schedule: Q01DX009 (oral), vehicle: lactic acid) 104 % of control; (dose: 15.0 mg/kg/injection, schedule: Q01DX009 (ip), vehicle: other) 168 % of control; (dose: 20.0 mg/kg/injection, schedule: Q01DX009 (oral), vehicle: Klucel (hydroxypropylcellulose) (HPC)) 108 % of control; (dose: 21.6 mg/kg/injection, schedule: Q01DX009 (oral), vehicle: Klucel (hydroxypropylcellulose) (HPC)) 100 % of control; (dose: 21.6 mg/kg/injection, schedule: Q01DX009 (oral), vehicle: lactic acid) 96 % of control; (dose: 36.0 mg/kg/injection, schedule: Q01DX009 (oral), vehicle: Klucel (hydroxypropylcellulose) (HPC)) 104 % of control. Further, the T/C by setting is: (dose: 36.0 mg/kg/injection, schedule: Q01DX009 (oral), vehicle: lactic acid) 96 % of control; (dose: 40.0 mg/kg/injection, schedule: Q01DX009 (oral), vehicle: Klucel (hydroxypropylcellulose) (HPC)) 93 % of control; (dose: 60.0 mg/kg/injection, schedule: Q01DX009 (oral), vehicle: Klucel (hydroxypropylcellulose) (HPC)) 96 % of control; (dose: 60.0 mg/kg/injection, schedule: Q01DX009 (oral), vehicle: lactic acid) 93 % of control; (dose: 80.0 mg/kg/injection, schedule: Q01DX009 (oral), vehicle: Klucel (hydroxypropylcellulose) (HPC)) 97 % of control; (dose: 100.0 mg/kg/injection, schedule: Q01DX009 (oral), vehicle: Klucel (hydroxypropylcellulose) (HPC)) 95 % of control. Further, the T/C (dose: 100.0 mg/kg/injection, schedule: Q01DX009 (oral), vehicle: lactic acid) was 99 % of control; the T/C (dose: 167.0 mg/kg/injection, schedule: Q01DX009 (oral), vehicle: Klucel (hydroxypropylcellulose) (HPC)) was 108 % of control; the T/C (dose: 167.0 mg/kg/injection, schedule: Q01DX009 (oral), vehicle: lactic acid) was 103 % of control.

On to `CC(C)(C)N=C(CCN1CCCCC1)Nc1ccccc1Cl`, for which the T/C is, setting by setting: (dose: 50.0 mg/kg/injection, schedule: Q01DX009 (ip), vehicle: saline with Tween-80) 116 % of control; under setting [1], 106 % of control; (dose: 200.0 mg/kg/injection, schedule: Q01DX009 (ip), vehicle: saline with Tween-80) 102 % of control.

For `O=C1NC(=O)C2(F)CC3(CCCCC3)C2N1` (centres undefined), the T/C by setting is: (dose: 1.5 mg/kg/injection, schedule: Q01DX005 (ip), vehicle: Klucel (hydroxypropylcellulose) (HPC)) 100 % of control; (dose: 3.0 mg/kg/injection, schedule: Q01DX005 (ip), vehicle: Klucel (hydroxypropylcellulose) (HPC)) 102 % of control; (dose: 6.0 mg/kg/injection, schedule: Q01DX005 (ip), vehicle: Klucel (hydroxypropylcellulose) (HPC)) 94 % of control; (dose: 12.5 mg/kg/injection, schedule: Q01DX001 (ip), vehicle: Klucel (hydroxypropylcellulose) (HPC)) 103 % of control.

Turning to `CC1CC(C(=O)c2ccoc2)C(=O)O1` (centres undefined), the T/C runs as follows: (dose: 12.5 mg/kg/injection, schedule: Q01DX005 (ip), vehicle: saline with Tween-80) 92 % of control; (dose: 25.0 mg/kg/injection, schedule: Q01DX005 (ip), vehicle: saline with Tween-80) 97 % of control; (dose: 50.0 mg/kg/injection, schedule: Q01DX005 (ip), vehicle: saline with Tween-80) 101 % of control and 91 % of control.

On to `COc1cc(C)c(C(=O)Oc2cc(C)c(C(=O)O)c(O)c2)c(O)c1`, for which the T/C under setting [2] was 90 % of control and the T/C (dose: 100.0 mg/kg/injection, schedule: Q01DX009 (ip), vehicle: saline) was 95 % of control.

Take `Oc1cc2c(cc1C(c1ccc3c(c1)OCO3)N1CCN(C(c3ccc4c(c3)OCO4)c3cc4c(cc3O)OCO4)CC1)OCO2` (centres undefined): the T/C (dose: 60.0 mg/kg/injection, schedule: Q01DX005 (ip), vehicle: saline with Tween-80) is 89 % of control; the T/C (dose: 120.0 mg/kg/injection, schedule: Q01DX005 (ip), vehicle: saline with Tween-80) was 87 % of control; the T/C (dose: 240.0 mg/kg/injection, schedule: Q01DX005 (ip), vehicle: saline with Tween-80) was 89 % of control.

Regarding `CC1(C)N=C(N)N=C(N)N1c1cccc(CNC(=O)Nc2cccc(S(=O)(=O)F)c2)c1`, the T/C is, setting by setting: (dose: 44.0 mg/kg/injection, schedule: Q01DX009 (ip), vehicle: saline with Tween-80) 159 % of control; under setting [2], 163 % of control; (dose: 67.0 mg/kg/injection, schedule: Q01DX009 (ip), vehicle: saline with Tween-80) 163 % of control; under setting [1], 168 % of control.
